Source: patent publication US12275731B2, “Azaindole inhibitors of wild-type and mutant forms of LRRK2” (DANA-FARBER CANCER INSTITUTE, INC., priority 2018, dated 2025)

Tests used:
Assay in all cases: KinomeScan profiling
Type in all cases: binding
CSNK1G3 = CSNK1G3 (Homo sapiens, UniProt Q9Y6M4); conditions: CSNK1G3, 1 μM; read-out: % control
In short: (§1)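 1 μM cpd in DMSO; 468-kinase panel; readout RLU. % ctrl = (cpd − pos ctrl)/(neg ctrl − pos ctrl) ×100. Pos ctrl = 0%, DMSO = 100%. Hit cut-off <35%.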

MRCKA = MRCKA (Homo sapiens, UniProt Q5VT25); conditions: read-out: % control
In short: as §1

GRK7 = molecular target: T1, GRK7 (Homo sapiens, UniProt Q8WTQ7); conditions: GRK7, 1 μM; read-out: % control
T1 sequence (Q8WTQ7 1-553): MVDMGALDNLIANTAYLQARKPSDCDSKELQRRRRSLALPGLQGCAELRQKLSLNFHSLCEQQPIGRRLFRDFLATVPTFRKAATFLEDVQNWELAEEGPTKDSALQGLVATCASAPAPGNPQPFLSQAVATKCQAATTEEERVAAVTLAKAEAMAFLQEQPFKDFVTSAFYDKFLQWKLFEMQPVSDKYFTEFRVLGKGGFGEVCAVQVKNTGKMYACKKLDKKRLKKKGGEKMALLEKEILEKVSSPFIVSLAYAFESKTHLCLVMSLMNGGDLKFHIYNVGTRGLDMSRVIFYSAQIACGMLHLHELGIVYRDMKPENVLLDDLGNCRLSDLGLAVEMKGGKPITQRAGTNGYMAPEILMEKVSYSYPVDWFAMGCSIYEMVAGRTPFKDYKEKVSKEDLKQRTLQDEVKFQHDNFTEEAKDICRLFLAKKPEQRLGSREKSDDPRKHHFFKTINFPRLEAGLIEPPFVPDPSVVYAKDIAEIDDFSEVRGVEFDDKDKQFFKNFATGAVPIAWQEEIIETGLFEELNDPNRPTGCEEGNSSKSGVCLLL
In short: as §1

PAK6 = PAK6 (Homo sapiens, UniProt Q9NQU5); conditions: PAK6, 1 μM; read-out: % control
In short: as §1

LATS2 = molecular target: T2, LATS2 (Homo sapiens, UniProt Q9NRM7); conditions: LATS2, 1 μM; read-out: % control
T2 sequence (Q9NRM7 1-1088): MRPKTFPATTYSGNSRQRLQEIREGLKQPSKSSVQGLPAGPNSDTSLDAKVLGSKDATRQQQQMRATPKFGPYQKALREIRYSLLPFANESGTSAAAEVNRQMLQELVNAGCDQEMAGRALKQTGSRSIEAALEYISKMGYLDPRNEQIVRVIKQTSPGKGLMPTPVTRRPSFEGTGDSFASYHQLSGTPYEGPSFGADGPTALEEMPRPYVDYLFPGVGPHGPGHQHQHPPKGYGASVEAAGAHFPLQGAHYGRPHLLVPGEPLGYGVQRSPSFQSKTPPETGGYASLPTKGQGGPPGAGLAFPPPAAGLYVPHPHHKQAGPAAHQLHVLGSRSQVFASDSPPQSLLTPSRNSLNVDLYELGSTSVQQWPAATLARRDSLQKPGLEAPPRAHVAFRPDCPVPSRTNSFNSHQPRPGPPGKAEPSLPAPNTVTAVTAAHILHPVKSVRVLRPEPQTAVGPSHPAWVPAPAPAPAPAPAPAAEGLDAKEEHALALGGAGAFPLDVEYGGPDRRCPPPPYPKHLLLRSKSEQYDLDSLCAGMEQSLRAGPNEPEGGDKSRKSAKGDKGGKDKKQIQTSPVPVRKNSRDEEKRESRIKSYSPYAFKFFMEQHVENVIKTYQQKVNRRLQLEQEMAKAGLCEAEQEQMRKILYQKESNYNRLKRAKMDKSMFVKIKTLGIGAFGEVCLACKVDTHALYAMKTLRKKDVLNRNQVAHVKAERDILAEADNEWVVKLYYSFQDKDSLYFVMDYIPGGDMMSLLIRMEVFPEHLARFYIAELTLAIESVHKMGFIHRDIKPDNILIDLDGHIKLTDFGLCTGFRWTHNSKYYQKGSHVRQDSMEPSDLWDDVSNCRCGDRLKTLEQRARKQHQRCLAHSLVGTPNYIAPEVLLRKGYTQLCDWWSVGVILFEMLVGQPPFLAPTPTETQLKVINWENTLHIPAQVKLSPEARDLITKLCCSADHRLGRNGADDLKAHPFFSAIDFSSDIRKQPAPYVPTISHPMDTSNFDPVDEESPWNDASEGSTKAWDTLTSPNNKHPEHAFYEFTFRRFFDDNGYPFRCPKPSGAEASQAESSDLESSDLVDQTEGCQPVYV
In short: as §1

PAK6, sequence (Q9NQU5 whole entry): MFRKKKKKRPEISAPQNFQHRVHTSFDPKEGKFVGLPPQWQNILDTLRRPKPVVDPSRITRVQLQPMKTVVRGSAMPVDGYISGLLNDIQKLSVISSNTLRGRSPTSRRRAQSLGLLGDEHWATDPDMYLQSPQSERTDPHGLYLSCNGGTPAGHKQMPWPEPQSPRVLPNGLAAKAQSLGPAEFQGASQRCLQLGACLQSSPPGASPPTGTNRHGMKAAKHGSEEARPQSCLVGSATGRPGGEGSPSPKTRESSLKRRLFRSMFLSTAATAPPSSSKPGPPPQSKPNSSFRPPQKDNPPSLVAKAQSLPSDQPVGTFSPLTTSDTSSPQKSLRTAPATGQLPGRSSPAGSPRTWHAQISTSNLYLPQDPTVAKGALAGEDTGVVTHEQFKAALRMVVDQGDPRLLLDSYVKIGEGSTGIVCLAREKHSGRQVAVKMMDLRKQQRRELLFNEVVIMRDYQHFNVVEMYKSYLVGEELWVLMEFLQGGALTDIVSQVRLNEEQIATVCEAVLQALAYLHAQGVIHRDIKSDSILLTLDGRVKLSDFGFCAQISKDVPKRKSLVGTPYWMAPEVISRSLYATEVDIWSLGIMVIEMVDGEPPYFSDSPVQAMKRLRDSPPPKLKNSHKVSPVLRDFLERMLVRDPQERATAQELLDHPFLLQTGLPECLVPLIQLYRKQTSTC
CSNK1G3, sequence (Q9Y6M4 whole entry): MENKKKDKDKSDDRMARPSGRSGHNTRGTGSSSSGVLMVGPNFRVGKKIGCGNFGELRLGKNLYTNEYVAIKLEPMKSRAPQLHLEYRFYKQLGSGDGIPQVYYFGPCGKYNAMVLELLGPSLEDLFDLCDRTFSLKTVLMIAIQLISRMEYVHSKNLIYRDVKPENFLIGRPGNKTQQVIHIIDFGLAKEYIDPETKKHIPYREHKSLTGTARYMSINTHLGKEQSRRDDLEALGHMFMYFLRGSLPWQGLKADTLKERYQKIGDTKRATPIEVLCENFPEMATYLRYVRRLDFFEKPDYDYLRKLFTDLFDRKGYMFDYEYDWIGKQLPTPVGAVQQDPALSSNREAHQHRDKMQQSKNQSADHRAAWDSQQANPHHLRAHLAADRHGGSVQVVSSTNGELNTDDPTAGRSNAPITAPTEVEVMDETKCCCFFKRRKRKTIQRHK
MRCKA, sequence (Q5VT25 whole entry): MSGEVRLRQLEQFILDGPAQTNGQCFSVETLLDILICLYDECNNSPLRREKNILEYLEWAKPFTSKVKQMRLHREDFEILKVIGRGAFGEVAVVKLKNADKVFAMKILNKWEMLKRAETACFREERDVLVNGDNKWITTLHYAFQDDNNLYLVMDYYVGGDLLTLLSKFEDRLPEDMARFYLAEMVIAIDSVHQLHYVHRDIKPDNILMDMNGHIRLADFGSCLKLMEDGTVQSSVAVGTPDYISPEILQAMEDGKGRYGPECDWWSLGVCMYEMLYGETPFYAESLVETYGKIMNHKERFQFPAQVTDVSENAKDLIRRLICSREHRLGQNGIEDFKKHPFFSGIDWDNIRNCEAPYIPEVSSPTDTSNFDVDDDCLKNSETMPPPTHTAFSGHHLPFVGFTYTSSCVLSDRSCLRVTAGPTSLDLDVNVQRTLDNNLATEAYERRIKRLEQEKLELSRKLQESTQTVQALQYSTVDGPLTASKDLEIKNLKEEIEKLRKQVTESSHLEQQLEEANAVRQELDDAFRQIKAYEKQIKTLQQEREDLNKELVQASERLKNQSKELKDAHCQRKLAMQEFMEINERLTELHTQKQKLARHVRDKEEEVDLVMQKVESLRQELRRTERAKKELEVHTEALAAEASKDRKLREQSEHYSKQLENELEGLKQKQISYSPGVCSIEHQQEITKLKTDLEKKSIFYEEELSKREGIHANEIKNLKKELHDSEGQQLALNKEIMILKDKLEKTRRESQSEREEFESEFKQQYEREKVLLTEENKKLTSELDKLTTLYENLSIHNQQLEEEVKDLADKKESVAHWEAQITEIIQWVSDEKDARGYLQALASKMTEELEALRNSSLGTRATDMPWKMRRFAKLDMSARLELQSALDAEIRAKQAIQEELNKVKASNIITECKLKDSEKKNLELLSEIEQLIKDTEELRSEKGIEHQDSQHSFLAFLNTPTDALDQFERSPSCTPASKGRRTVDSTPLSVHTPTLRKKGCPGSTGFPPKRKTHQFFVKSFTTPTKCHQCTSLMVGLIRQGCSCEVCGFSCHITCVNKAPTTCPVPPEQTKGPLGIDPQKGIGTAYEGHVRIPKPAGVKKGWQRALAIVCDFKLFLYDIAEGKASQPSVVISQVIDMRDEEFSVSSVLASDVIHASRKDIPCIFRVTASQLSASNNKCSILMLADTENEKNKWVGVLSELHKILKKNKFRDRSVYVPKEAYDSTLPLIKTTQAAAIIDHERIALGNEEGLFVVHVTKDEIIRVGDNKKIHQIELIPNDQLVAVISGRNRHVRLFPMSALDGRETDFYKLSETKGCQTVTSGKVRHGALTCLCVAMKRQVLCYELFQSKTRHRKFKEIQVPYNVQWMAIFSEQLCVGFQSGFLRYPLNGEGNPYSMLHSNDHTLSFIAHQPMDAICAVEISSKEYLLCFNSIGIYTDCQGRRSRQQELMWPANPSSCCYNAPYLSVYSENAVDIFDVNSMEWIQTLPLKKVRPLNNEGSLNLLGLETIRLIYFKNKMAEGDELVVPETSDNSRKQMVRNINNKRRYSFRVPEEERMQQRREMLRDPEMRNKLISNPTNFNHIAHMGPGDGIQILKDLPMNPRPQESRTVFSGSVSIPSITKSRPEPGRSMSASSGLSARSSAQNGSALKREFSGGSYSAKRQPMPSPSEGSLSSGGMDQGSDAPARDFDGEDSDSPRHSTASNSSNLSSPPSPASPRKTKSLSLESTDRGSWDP

Row | Compound | remaining binding at 1 µM (CSNK1G3) | remaining binding at 1 µM (MRCKA) | remaining binding at 1 µM (GRK7) | remaining binding at 1 µM (PAK6) | remaining binding at 1 µM (LATS2)
1 | O=C(c1ccc(-c2cnc3[nH]cc(Cl)c3c2NC2CCCC2)cc1)N1CCC(N2CCOCC2)CC1 [Compound 101, (4-(3-chloro-4-(cyclopentylamino)-1H-pyrrolo[2,3-b]pyridin-5-yl)phenyl)(4-morpholinopiperidin-1-yl)methanone] | 93% | 100% | 94% | 99% | 82%
2 | CNc1c(-c2cnn([C@H]3CCN(C(C)=O)C[C@@H]3F)c2)cnc2[nH]cc(Cl)c12 [Compound 77, 1-((3S,4S)-4-(4-(3-chloro-4-(methylamino)-1H-pyrrolo[2,3-b]pyridin-5-yl)-1H-pyrazol-1-yl)-3-fluoropiperidin-1-yl)ethan-1-one] | 24% | 100% | 100% | 99% | 86%
3 | CNc1c(-c2ccc(C(=O)N3CCC(N4CCOCC4)CC3)cc2)cnc2[nH]cc(Cl)c12 [Compound 96, (4-(3-chloro-4-(methylamino)-1H-pyrrolo[2,3-b]pyridin-5-yl)phenyl)(4-morpholinopiperidin-1-yl)methanone] | 16% | 100% | 100% | 100% | 78%
